“Also recorded” adds a separate entry of the source.

One series concerns human hepatocytes. In words: Conversion of compounds in human hepatocytes. In kind it is in vitro ADME. The following applies: 1 μM compound, 37° C.; nd: not detected. The protocol:
Incubations were conducted in 96-well plates at 1 μM compound concentration in duplicate. The hepatocyte cell concentration was 0.5×10^6 cells/mL used for final incubation at 37° C. in an incubator of 5% CO2 95% relative humidity. The medium control samples were included at 0 and 60 minutes in the absence of cells. The total organic concentration was 1% (DMSO 0.1%) in the final incubation. The controls, (7-ethoxycoumarin and 7-hydroxycoumarin) was incubated parallel at 3 μM. 2 μL of dosing solution (50 μM for test compounds and 100 μM for positive control) was mixed with 98 μL of 100 mM PBS to achieve 1 μM test compound and 2 μM positive control of final concentration. The mixture was incubated, and samples were withdrawn from the incubations at pre-determined time points of 0, 0.5, 1, 2, 4 and 6 hr (in duplicate) at 37° C. in water bath. To each sample, 10 μL inhibitor and 20 μL ascorbic acid and 2 μL formic acid (20%) were added followed by 400 μL of stop solution (200 ng/mL tolbutamide plus 200 ng/mL labetalol in 50% ACN/MeOH). The substance was mixed thoroughly and thereafter centrifuged at 4,000 rpm for 20 minutes. An aliquot of supernatant (50 μL) from each well were transferred to a sample plate and mixed with 100 μL ultrapure water. The plate was shaked at 800 rpm for about 10 minutes before submitting to LC-MS/MS analysis.
(§1) Mass spectrometer (LC-MS/MS) Shimadzu LC 20-AD Shimadzu UHPLC API 4000. Analytical column ACQUITY UPLC® BEH Phenyl 1.7 μm 2.1×50 mm. Mobile phase A: 0.1% Formic Acid in Water. Mobile phase B: 0.1% Formic Acid in Acetonitrile. […] Flow rate 0.7 mL/min.

A short description of series [1]: Conversion of compounds in human plasma. In kind it is in vitro ADME. Particulars: 1 μM test compound, 37° C., 0-6 hr; nd: not detected. The protocol: Frozen human plasma was thawed and then centrifuged at 3200×g for 5 min to remove debris. The pH value of the supernatant was then measured and adjusted to 7.4±0.1 by adding 1% phosphoric acid or 1 N sodium hydroxide. 2 μL of dosing solution (50 μM for test compounds and 100 μM for positive control (propantheline bromide)) was mixed with 98 μL of blank plasma to achieve 1 μM test compound and 2 μM positive control of final concentration. The mixture was incubated, and samples were withdrawn from the incubations at the pre-determined time points of 0, 0.5, 1, 2, 4 and 6 hr (in duplicate) at 37° C. in water bath. At each corresponding time point 10 μL inhibitor and 20 μL ascorbic acid and 2 μL formic acid (20%) are added, and then added 400 μL of “stop solution” (200 ng/mL tolbutamide plus 200 ng/mL labetalol in 50% ACN/MeOH) to precipitate protein. The substance was mixed thoroughly and thereafter Centrifugated at 4,000 rpm for 20 minutes. Then an aliquot of supernatant (50 μL) was transferred from each well to a sample plate and mixed with 100 μL ultrapure water. The plate was shaked at 800 rpm for about 10 minutes before submitting to LC-MS/MS analysis.
as §1

Series [2] in a line: PK experiments in rats, plasma compound (I) after oral dosing. In kind it is in vivo, Han Wistar rats. Particulars: oral dosing, rats. As for the experimental part: Plasma was placed on water-ice following collection. Final storage at approximately −70° C.
Mobile phase B: Acetonitrile. […] Flow rate 0.5 mL/min.
The rats had unrestricted access to the diet.
Mobile phase B: Acetonitrile+0.2% formic acid. […] Flow rate 0.3 mL/min.
The rats received a standard laboratory diet Teklad 2014C. The rats had unrestricted access to the diet.

The next series concerns the target human 5-HT2B receptor (Homo sapiens (Human), UniProt P41595). In words: 5-HT2B agonist activity assay (IP1 production, HTRF). In kind it is cell-based. Particulars: read-out: 5-HT2B agonist activity, percent of control response. The protocol:
Evaluation of the agonist activity of compounds (I), (Ia), (Ib), (Ic), (Ia-iab), compound (2), compound (9), compound (15), compound (27), A2, A3, and A7 at the human 5-HT2B receptor was performed by Eurofins/Cerep (France) measuring the compound effects on inositol monophosphate (IP1) production using the HTRF detection method. Briefly, the human 5-HT2B receptor was expressed in transfected CHO cells. The cells were suspended in a buffer containing 10 mM Hepes/NaOH (pH 7.4), 4.2 mM KCl, 146 mM NaCl, 1 mM CaCl2, 0.5 mM MgCl2, 5.5 mM glucose and 50 mM LiCl, then distributed in microplates at a density of 4100 cells/well and incubated for 30 minutes at 37° C. in the presence of buffer (basal control), test compound or reference agonist. For stimulated control measurement, separate assay wells contained 1 μM 5-HT. Following incubation, the cells were lysed and the fluorescence acceptor (fluorophen D2-labeled IP1) and fluorescence donor (anti-IP1 antibody labeled with europium cryptate) were added. After 60 minutes at room temperature, the fluorescence transfer was measured at lambda(Ex) 337 nm and lambda(Em) 620 and 665 nm using a microplate reader (Rubystar, BMG). The IP1 concentration was determined by dividing the signal measured at 665 nm by that measured at 620 nm (ratio). The results were expressed as a percent of the control response to 1 μM 5-HT. The standard reference agonist was 5-HT, which was tested in each experiment at several concentrations to generate a concentration-response curve from which its EC50 value is calculated as described above for dopamine functional assays.

Chain of human 5-HT2B receptor (P41595 whole entry): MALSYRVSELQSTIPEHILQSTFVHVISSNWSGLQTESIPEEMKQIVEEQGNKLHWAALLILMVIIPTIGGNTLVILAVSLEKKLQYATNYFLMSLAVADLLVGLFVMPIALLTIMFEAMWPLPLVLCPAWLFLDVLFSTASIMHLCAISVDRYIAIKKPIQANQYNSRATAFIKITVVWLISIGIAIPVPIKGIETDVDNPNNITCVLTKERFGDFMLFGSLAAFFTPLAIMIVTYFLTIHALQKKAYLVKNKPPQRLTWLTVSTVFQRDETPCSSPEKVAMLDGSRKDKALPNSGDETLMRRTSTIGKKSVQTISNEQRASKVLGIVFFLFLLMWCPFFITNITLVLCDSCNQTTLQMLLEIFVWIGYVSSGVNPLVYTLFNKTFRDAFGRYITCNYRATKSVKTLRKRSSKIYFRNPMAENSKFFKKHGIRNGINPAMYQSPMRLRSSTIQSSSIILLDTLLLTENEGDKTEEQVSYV

With `CCCN1CCC[C@@H]2Cc3c(ccc(OCc4ccccc4)c3O[C@@H]3O[C@H](C(=O)OCC)[C@@H](OC(=O)C(C)(C)C)[C@H](OC(=O)C(C)(C)C)[C@H]3OC(=O)C(C)(C)C)C[C@H]21` [Compound (13), (2S,3R,4S,5S,6S)-2-(((4aR,10aR)-7-(benzyloxy)-1-propyl-1,2,3,4,4a,5,10,10a-octahydrobenzo[g]quinolin-6-yl)oxy)-6-(ethoxycarbonyl)tetrahydro-2H-pyran-3,4,5-triyl tris(2,2-dimethylpropanoate)], the “Observed metabolite, Incubation in human hepatocytes” value with human hepatocytes is “Compound (14)”.
On to `CCCN1CCC[C@@H]2Cc3c(ccc(OCc4ccccc4)c3O[C@@H]3O[C@H](C(=O)OCc4ccccc4)[C@@H](OC(=O)C(C)(C)C)[C@H](OC(=O)C(C)(C)C)[C@H]3OC(=O)C(C)(C)C)C[C@H]21` [Compound (5), (2S,3R,4S,5S,6S)-2-(((4aR,10aR)-7-(benzyloxy)-1-propyl-1,2,3,4,4a,5,10,10a-octahydrobenzo[g]quinolin-6-yl)oxy)-6-((benzyloxy)carbonyl)tetrahydro-2H-pyran-3,4,5-triyl tris(2,2-dimethylpropanoate)], for which, in the series on human hepatocytes, the “Observed metabolite, Incubation in human hepatocytes” value was “Compound (24)”. For the same molecule, the “Observed metabolite, Incubation in human plasma” value in series [1] is “Compound (24)”.
In the case of `CCCN1CCC[C@@H]2Cc3c(ccc(OCc4ccccc4)c3O[C@@H]3O[C@H](C(=O)OC)[C@@H](OC(C)=O)[C@H](OC(C)=O)[C@H]3OC(C)=O)C[C@H]21` [Compound (1), (2S,3R,4S,5S,6S)-2-(((4aR,10aR)-7-(benzyloxy)-1-propyl-1,2,3,4,4a,5,10,10a-octahydrobenzo[g]quinolin-6-yl)oxy)-6-(methoxycarbonyl)tetrahydro-2H-pyran-3,4,5-triyl triacetate], the “Observed metabolite, Incubation in human hepatocytes” value with human hepatocytes is reported as “Compound A2,; also recorded: Compound (4)”. For the same molecule, the “Observed metabolite, Incubation in human plasma” value in series [1] is “Compound A2,; also recorded: compound (2)”.
On the same counts, the results for `CCCN1CCC[C@@H]2Cc3c(ccc(OC)c3O[C@@H]3O[C@H](C(=O)OCc4ccccc4)[C@@H](OC(=O)C(C)(C)C)[C@H](OC(=O)C(C)(C)C)[C@H]3OC(=O)C(C)(C)C)C[C@H]21` [Compound (20), (2S,3S,4S,5R,6S)-2-((benzyloxy)carbonyl)-6-(((4aR,10aR)-7-methoxy-1-propyl-1,2,3,4,4a,5,10,10a-octahydrobenzo[g]quinolin-6-yl)oxy)tetrahydro-2H-pyran-3,4,5-triyltris(2,2-dimethylpropanoate)] are “Compound (21)” and “Compound (21)”.
On the same counts, the results for `CCCN1CCC[C@@H]2Cc3c(ccc(OCc4ccccc4)c3O[C@@H]3O[C@H](C(=O)OC)[C@@H](OC(=O)C(C)(C)C)[C@H](OC(=O)C(C)(C)C)[C@H]3OC(=O)C(C)(C)C)C[C@H]21` [Compound (25), (2S,3R,4S,5S,6S)-2-(((4aR,10aR)-7-(benzyloxy)-1-propyl-1,2,3,4,4a,5,10,10a-octahydrobenzo[g]quinolin-6-yl)oxy)-6-(methoxycarbonyl)tetrahydro-2H-pyran-3,4,5-triyl tris(2,2-dimethylpropanoate)] are “Compound A2,; also recorded: Compound (24)” and “Compound A2,; also recorded: Compound (24)”.
Consider `CCCN1CCC[C@@H]2Cc3c(ccc(OC)c3O)C[C@H]21` [Compound A7, (4aR,10aR)-7-methoxy-1-propyl-1,2,3,4,4a,5,10,10a-octahydrobenzo[g]quinolin-6-ol], for which the “Observed metabolite, In vivo PK study after oral dosing (rats)” value in series [2] is “Compound (I)”. In addition, in the series on human hepatocytes, the “Observed metabolite, Incubation in human hepatocytes” value is listed as “Compound (I)”. Further, the activity at 10 µM at human 5-HT2B receptor amounted to 27%.
With `CCCN1CCC[C@@H]2Cc3c(ccc(O[C@@H]4O[C@H](C(=O)O)[C@@H](O)[C@H](O)[C@H]4O)c3O[C@@H]3O[C@H](C(=O)O)[C@@H](O)[C@H](O)[C@H]3O)C[C@H]21` [(Id-iab), (2S,2′S,3S,3′S,4S,4′S,5R,5′R,6S,6′S)-6,6′-(((4aR,10aR)-1-propyl-1,2,3,4,4a,5,10,10a-octahydrobenzo[g]quinoline-6,7-diyl)bis(oxy))bis(3,4,5-trihydroxytetrahydro-2H-pyran-2-carboxylic acid)], the “Observed metabolite, In vivo PK study after oral dosing (rats)” value in series [2] was “Compound (I)”. In the series on human hepatocytes, the “Observed metabolite, Incubation in human hepatocytes” value is recorded as “Compound (I)”. The “Observed metabolite, Incubation in human plasma” value in series [1] is on record as “Compound (I)”.
On to `CCCN1CCC[C@@H]2Cc3c(ccc(OCc4ccccc4)c3O[C@@H]3O[C@H](C(=O)OCC)[C@@H](OC(C)=O)[C@H](OC(C)=O)[C@H]3OC(C)=O)C[C@H]21` [Compound (10), (2S,3R,4S,5S,6S)-2-(((4aR,10aR)-7-(benzyloxy)-1-propyl-1,2,3,4,4a,5,10,10a-octahydrobenzo[g]quinolin-6-yl)oxy)-6-(ethoxycarbonyl)tetrahydro-2H-pyran-3,4,5-triyl triacetate], for which, in the series on human hepatocytes, the “Observed metabolite, Incubation in human hepatocytes” value is reported as “Compound A2,; also recorded: Compound (4)”. For the same molecule, the “Observed metabolite, Incubation in human plasma” value in series [1] is “Compound A2,; also recorded: Compound (4)”.
With `CCCN1CCC[C@@H]2Cc3c(ccc(OC)c3O[C@@H]3O[C@H](C(=O)OC)[C@@H](OC(=O)C(C)(C)C)[C@H](OC(=O)C(C)(C)C)[C@H]3OC(=O)C(C)(C)C)C[C@H]21` [Compound (22), (2S,3S,4S,5R,6S)-2-((methoxy)carbonyl)-6-(((4aR,10aR)-7-methoxy-1-propyl-1,2,3,4,4a,5,10,10a-octahydrobenzo[g]quinolin-6-yl)oxy)tetrahydro-2H-pyran-3,4,5-triyl tris(2,2-dimethylpropanoate)], the “Observed metabolite, Incubation in human hepatocytes” value in the series with human hepatocytes is “Compound (21)”. In addition, the “Observed metabolite, Incubation in human plasma” value in series [1] was “Compound (21)”.

The values are drawn from patent publication US12384765B2, “Catecholamine prodrugs for use in the treatment of Parkinson's Disease” (H. Lundbeck A/S, priority 2019, dated 2025).
